Laboratory results from patent publication US8895511B2, “Use of sarcoplasmic CA2+-ATPase type 2 protein for diagnosing and treating learning or mental disorders” (priority 2009, dated 2014).

Columns and labels:
[1] = test system: CA3-CA1 synapses in acute hippocampal slices; assay: Paired-pulse facilitation (PPF) of fEPSPs, field potential recordings in hippocampal slices; format: cell-based, mouse
[2] = test system: CA3-CA1 synapses in acute hippocampal slices; assay: PTP and LTP of fEPSPs induced by 200-Hz tetanization in hippocampal slices; format: cell-based, mouse; settings: CPA or thapsigargin (4 μm); for fEPSP5 (PTP, 5 minutes after tetanization) as % of that in vehicle-treated Df(16)1/+ slices / fEPSP360 (LTP, 6 hours post-tetanus) as % of that in vehicle-treated Df(16)1/+ slices: slices from mature Df(16)1/+ mice
[3] = WT mice, 200-Hz induction protocol

Row | Structure (SMILES) | PPF ([1]; Df(16)1/+ mice, 20-ms interval, CPA added to the bath solution) | PPF ([1]; Df(16)1/+ mice, 50-ms interval, CPA added to the bath solution) | PPF ([1]; WT mice, 20-ms interval, in the presence of CPA) | PPF ([1]; WT mice, 50-ms interval, in the presence of CPA) | fEPSP5 (PTP, 5 minutes after tetanization) as % of that in vehicle-treated Df(16)1/+ slices ([2]; 200-Hz tetanization) [%] | fEPSP360 (LTP, 6 hours post-tetanus) as % of that in vehicle-treated Df(16)1/+ slices ([2]; 200-Hz tetanization) [%] | effect on enhancement of PTP and LTP ([2]; Df(16)1/+ mice, 200-Hz tetanization) | WT fEPSP5 in the presence vs absence of inhibitor [2, 3] | WT fEPSP360 in the presence vs absence of inhibitor [2, 3]
1 | CC(=O)C1=C(O)[C@@H]2[C@H]3c4c[nH]c5cccc(c45)C[C@H]3C(C)(C)N2C1=O [CPA, cyclopiazonic acid] | 1.78±0.13 | 1.76±0.09 | 1.64±0.11 | 1.61±0.05 | 45 | 60 | – | – | –
2 | C/C=C(/C)C(=O)O[C@H]1C(C)=C2[C@H]([C@@H]1OC(=O)CCCCCCC)[C@@](C)(OC(C)=O)C[C@H](OC(=O)CCC)[C@@]1(O)[C@H]2OC(=O)[C@@]1(C)O [thapsigargin] | – | – | – | – | 69 | 57 | rescued the enhancement of PTP and LTP | no significant difference | no significant difference
